According to ChEMBL document CHEMBL1201862, “PubChem BioAssay data set” (2004):
The source made the active and inactive calls.

Experiments:
[1] = cytotoxicity toward NIH3T3 fibroblasts, dose response, counter-screen, cell-based, ATP luminescence, mouse fibroblasts (AID 2010); type: functional;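 also: cells exposed to compound for about 90 hours before reading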
[2] = molecular target: 5-hydroxytryptamine receptor 1E (Homo sapiens, UniProt P28566); assay: Counterscreen assay for S1P3 antagonists: Dose response cell-based high throughput screening assay to identify antagonists of the 5-Hydroxytryptamine Receptor Subtype 1E (5HT1E). [Related pubchem assays: 1429, 485 ]; type: functional
Chain of 5-hydroxytryptamine receptor 1E (P28566 whole entry): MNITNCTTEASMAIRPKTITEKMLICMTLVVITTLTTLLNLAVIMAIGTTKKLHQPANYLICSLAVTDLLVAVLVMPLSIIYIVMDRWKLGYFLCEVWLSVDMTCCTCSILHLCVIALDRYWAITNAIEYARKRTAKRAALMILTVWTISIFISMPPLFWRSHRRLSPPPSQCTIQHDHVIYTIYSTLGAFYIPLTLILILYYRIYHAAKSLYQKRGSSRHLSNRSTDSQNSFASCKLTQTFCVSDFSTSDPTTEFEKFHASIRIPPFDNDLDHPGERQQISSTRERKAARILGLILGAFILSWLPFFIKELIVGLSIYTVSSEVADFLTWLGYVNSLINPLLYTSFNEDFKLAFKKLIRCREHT

[3] = molecular target: Sphingosine 1-phosphate receptor 3 (Homo sapiens, UniProt Q99500); assay: Dose response cell-based high throughput screening assay for antagonists of the Sphingosine 1-Phosphate Receptor 3 (S1P3). [Related pubchem assays: 1429, 485 ]; type: functional
Chain of Sphingosine 1-phosphate receptor 3 (Q99500 whole entry): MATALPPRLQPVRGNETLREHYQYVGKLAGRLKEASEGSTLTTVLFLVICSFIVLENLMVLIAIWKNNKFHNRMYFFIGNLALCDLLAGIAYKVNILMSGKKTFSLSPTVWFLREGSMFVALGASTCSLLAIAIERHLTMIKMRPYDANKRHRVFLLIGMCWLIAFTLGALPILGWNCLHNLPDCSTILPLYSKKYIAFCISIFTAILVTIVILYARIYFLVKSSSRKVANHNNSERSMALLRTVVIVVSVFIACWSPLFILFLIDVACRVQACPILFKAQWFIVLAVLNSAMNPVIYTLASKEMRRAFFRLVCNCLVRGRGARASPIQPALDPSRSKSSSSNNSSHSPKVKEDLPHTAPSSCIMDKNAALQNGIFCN

[4] = inhibitors of intracellular T. cruzi replication, confirmation, NIH3T3 host cells, beta-gal luminescence (AID 2044); type: functional, cell-based;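 also: intracellular parasites grown in NIH/3T3 mouse fibroblasts as host cells; luminescent beta-galactosidase reporter signal from transgenic T. cruzi replicating inside host cells; inhibitors lower the luminescence signal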
Ion channel NompC = Ion channel NompC (Danio rerio, UniProt Q7T1G6); assay: Fluorescence counterscreen assay for TRPML3 agonists: dose response cell-based high-throughput screening assay to identify agonists of the transient receptor potential channel N1 (TRPN1). [Related pubchem assays: 1526, 1424, 1448 ]; type: functional
Chain of Ion channel NompC (Q7T1G6 whole entry): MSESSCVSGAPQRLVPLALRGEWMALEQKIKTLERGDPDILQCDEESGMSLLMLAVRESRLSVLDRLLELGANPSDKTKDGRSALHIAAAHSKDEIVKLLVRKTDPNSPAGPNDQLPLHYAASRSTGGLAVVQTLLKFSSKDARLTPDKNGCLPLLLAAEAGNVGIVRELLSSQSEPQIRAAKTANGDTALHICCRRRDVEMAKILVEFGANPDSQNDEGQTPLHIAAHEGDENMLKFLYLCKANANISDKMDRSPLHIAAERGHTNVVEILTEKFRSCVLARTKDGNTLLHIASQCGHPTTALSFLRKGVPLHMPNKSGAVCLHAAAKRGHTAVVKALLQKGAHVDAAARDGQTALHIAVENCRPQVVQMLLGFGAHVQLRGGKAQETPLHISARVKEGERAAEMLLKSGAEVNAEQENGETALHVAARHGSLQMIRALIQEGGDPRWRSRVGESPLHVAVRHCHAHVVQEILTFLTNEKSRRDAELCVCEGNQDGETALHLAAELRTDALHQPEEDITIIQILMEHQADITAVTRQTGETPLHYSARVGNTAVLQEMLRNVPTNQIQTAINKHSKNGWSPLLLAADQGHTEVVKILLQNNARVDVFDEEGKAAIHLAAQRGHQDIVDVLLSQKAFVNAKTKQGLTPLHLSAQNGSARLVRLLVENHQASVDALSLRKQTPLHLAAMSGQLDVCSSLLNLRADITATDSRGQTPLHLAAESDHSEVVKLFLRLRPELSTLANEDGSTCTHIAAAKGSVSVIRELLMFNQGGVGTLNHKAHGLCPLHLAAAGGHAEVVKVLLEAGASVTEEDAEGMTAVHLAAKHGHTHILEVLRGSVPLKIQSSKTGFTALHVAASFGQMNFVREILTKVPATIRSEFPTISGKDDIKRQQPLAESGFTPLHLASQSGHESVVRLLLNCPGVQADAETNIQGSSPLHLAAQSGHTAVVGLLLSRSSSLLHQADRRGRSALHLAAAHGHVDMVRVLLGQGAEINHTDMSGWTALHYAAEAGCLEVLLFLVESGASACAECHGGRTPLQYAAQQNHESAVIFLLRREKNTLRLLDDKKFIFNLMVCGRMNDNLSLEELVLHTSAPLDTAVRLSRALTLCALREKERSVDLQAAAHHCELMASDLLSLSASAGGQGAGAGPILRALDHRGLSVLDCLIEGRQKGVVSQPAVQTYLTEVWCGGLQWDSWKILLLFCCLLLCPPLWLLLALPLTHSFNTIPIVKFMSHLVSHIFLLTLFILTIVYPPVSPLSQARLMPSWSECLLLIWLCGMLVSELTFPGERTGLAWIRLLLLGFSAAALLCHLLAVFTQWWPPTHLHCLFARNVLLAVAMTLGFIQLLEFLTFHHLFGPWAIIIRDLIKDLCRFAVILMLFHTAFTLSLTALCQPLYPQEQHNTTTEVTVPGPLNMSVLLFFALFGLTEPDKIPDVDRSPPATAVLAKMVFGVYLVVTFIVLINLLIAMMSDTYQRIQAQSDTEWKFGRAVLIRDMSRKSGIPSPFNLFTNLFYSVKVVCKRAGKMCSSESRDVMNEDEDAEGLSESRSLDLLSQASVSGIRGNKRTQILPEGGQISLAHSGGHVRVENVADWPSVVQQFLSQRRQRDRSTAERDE

Mucolipin-3 = Mucolipin-3 (Homo sapiens, UniProt Q8TDD5); assay: Dose response cell-based high-throughput screening assay for agonists of the transient receptor potential channel ML3 (TRPML3). [Related pubchem assays: 1526, 1424, 1448 ]; type: functional
Chain of Mucolipin-3 (Q8TDD5 whole entry): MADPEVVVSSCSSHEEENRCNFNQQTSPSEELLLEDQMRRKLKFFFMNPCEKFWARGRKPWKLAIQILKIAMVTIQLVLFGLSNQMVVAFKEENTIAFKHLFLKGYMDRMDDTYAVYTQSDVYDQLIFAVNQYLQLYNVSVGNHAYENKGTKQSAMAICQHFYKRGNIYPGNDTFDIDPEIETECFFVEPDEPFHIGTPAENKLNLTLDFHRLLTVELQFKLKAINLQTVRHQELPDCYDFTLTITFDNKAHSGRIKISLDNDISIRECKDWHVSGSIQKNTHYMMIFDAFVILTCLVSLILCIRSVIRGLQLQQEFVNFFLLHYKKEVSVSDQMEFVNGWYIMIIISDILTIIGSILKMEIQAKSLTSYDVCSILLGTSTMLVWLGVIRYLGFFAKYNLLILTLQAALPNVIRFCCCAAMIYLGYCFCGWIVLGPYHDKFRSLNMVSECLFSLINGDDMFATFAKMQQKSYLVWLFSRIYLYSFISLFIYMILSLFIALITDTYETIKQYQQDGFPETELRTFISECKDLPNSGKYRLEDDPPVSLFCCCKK

[5] = A Cell Based Secondary Assay To Explore Cytotoxicity of Compounds that Sensitize Mycobacterium Tuberculosis to Beta-Lactam Antibiotics.; type: functional
[6] = molecular target: T1, Microphthalmia-associated transcription factor (Homo sapiens, UniProt O75030); assay: TRPM1 promoter luciferase signal decrease, dose response, MITF inhibitor project, cell-based, SK-MEL-5, cherry-picked, set 3 (AID 493073); type: functional
T1 sequence (O75030 whole entry): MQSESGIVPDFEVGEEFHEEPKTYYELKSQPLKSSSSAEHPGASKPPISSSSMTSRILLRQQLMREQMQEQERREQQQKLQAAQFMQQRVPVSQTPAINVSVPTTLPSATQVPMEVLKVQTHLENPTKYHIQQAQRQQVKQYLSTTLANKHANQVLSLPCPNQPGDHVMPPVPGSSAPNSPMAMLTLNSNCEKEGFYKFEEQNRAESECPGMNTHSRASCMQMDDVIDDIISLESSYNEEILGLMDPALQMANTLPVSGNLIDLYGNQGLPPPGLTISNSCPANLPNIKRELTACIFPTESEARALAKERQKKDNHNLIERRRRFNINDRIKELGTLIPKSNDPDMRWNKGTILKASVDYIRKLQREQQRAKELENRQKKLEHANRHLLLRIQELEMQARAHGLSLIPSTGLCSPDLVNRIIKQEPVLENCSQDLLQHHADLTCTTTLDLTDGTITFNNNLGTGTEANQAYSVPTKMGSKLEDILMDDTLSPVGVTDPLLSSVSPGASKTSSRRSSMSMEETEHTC

[7] = molecular target: Induced myeloid leukemia cell differentiation protein Mcl-1 (Homo sapiens, UniProt Q07820); assay: MCL1-BIM BH3 interaction inhibitors, dose response, biochemical, fluorescence polarization, BIM-BH3 peptide, 1536-well (AID 2217)
Chain of Induced myeloid leukemia cell differentiation protein Mcl-1 (Q07820 whole entry): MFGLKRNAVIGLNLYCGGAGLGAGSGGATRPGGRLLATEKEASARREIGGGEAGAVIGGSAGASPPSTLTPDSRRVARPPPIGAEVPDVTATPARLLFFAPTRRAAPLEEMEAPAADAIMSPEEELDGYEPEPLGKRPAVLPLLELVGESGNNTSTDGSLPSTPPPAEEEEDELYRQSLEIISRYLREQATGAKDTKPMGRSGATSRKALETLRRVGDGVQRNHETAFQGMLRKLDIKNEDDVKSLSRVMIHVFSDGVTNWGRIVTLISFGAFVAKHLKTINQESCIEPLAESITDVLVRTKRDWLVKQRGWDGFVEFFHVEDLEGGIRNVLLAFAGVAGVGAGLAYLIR

[8] = NIH-3T3 fibroblast cytotoxicity, dose response, cytotoxicity control, cell-based, fluorescence, Alamar Blue, secondary assay (AID 2327); type: functional;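 also: NIH-3T3 mouse fibroblasts cultured with fluconazole at 8 µg/mL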
[9] = molecular target: T2, Carboxy-terminal domain RNA polymerase II polypeptide A small phosphatase 1 (Homo sapiens, UniProt Q9GZU7); assay: inhibitors of CTDSP1, concentration-response testing, biochemical assay, absorbance-based, actives from ultra-high-throughput screening (AID 540297); type: functional
T2 sequence (Q9GZU7 whole entry): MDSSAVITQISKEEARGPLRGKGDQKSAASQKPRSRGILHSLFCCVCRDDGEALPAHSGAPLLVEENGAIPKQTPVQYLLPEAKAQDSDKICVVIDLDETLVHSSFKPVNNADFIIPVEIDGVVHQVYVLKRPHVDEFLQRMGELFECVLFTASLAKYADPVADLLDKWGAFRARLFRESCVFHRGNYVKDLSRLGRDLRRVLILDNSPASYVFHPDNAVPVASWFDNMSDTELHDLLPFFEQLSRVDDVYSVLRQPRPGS

Bcl-2-like protein 1 = Bcl-2-like protein 1 (Homo sapiens, UniProt Q07817); assay: BCL-XL inhibitors, dose response, selectivity assay for MCL1 inhibitor project, biochemical, fluorescence polarization, 1536-well (AID 2218)
Chain of Bcl-2-like protein 1 (Q07817 whole entry): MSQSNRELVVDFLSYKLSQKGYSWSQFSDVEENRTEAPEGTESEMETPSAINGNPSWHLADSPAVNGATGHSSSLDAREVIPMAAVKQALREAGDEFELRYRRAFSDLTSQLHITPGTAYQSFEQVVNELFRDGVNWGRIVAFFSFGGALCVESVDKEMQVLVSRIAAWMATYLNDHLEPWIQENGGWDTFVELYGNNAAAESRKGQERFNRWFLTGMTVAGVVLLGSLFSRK

With O=C(Nc1ccc2ccccc2c1)C(c1ccccc1)C1CCCC1 (centres undefined) the EC50 [1] was > 30 µM (not active), the IC50 [2] was 1.85 µM (active) and the IC50 [3] was 2.1 µM (active). The EC50 [4] was 2.42 µM (active).
With Cc1onc(-c2ccc(Cl)cc2)c1-c1ccnn1S(=O)(=O)c1cccc(C(F)(F)F)c1 the EC50 (Ion channel NompC) was > 29.9 µM (not active) and the EC50 (Mucolipin-3) was 4.26 µM (active).
For O=C(COc1ccccc1)Nc1cccc(-c2nnc(-c3ccccc3)o2)c1, the CC50 [5] was > 40 µM (active).
For Cc1nc2ccccn2c1C(=O)N/N=C/c1ccc([N+](=O)[O-])o1, the EC50 [1] was 10.9 µM (active), the AC50 [6] was 8.03 µM (active) and the IC50 [7] was 13.2 µM (not active). For the same molecule, the EC50 [8] was > 160 µM (inactive), the IC50 [9] was 5.79 µM (active) and the EC50 [4] was 0.139 µM (active). The IC50 (Bcl-2-like protein 1) was 55.2 µM (not active).
